Results reported in article PMC8597734 (Antimicrobial Agents and Chemotherapy, 2021).
In brackets after ≈: the same amount, converted by molar mass. Read-outs that look alike come from different tables or passages of the source.

Assays:
[1] = system: M. tuberculosis H37Rv ATCC 27294; assay: microbe, parasite or virus in culture; assay type: cell-based; conditions: Mycobacterium tuberculosis, 168 h
M. avium 11 = assay: microbe, parasite or virus in culture; assay type: cell-based; conditions: Mycobacterium avium, 11, 96 h
[2] = system: M. intracellulare ATCC 13950; assay: microbe, parasite or virus in culture; assay type: cell-based; conditions: Mycobacterium intracellulare, ATCC13950, 96 h
M. abscessus Bamboo [3] = assay: microbe, parasite or virus in culture; assay type: cell-based, Mycobacterium abscessus; conditions: Mycobacteroides abscessus
[4] = system: M. abscessus subsp. abscessus ATCC 19977; assay: microbe, parasite or virus in culture; assay type: cell-based, Mycobacterium abscessus; conditions: Mycobacteroides abscessus
[5] = system: M. abscessus subsp. massiliense CCUG 48898T; assay: microbe, parasite or virus in culture; assay type: cell-based, Mycobacterium abscessus; conditions: Mycobacteroides abscessus, 72 h
[6] = system: M. abscessus subsp. bolletii CCUG 50184T; assay: microbe, parasite or virus in culture; assay type: cell-based, Mycobacterium abscessus; conditions: Mycobacteroides abscessus, 72 h
[7] = system: M. abscessus subsp. abscessus M9; assay: microbe, parasite or virus in culture; assay type: cell-based, Mycobacterium abscessus; conditions: Mycobacteroides abscessus, 72 h
[8] = system: M. abscessus subsp. abscessus M199; assay: microbe, parasite or virus in culture; assay type: cell-based, Mycobacterium abscessus; conditions: Mycobacteroides abscessus, 72 h
[9] = system: M. abscessus subsp. abscessus M337; assay: microbe, parasite or virus in culture; assay type: cell-based, Mycobacterium abscessus; conditions: Mycobacteroides abscessus, 72 h
[10] = system: M. abscessus subsp. abscessus M404; assay: microbe, parasite or virus in culture; assay type: cell-based, Mycobacterium abscessus; conditions: Mycobacteroides abscessus, 72 h
[11] = system: M. abscessus subsp. abscessus M422; assay: microbe, parasite or virus in culture; assay type: cell-based, Mycobacterium abscessus; conditions: Mycobacteroides abscessus, 72 h
[12] = system: M. abscessus subsp. bolletii M232; assay: microbe, parasite or virus in culture; assay type: cell-based, Mycobacterium abscessus; conditions: Mycobacteroides abscessus, 72 h
[13] = system: M. abscessus subsp. bolletii M506; assay: microbe, parasite or virus in culture; assay type: cell-based, Mycobacterium abscessus; conditions: Mycobacteroides abscessus, 72 h
[14] = system: M. abscessus subsp. massiliense M111; assay: microbe, parasite or virus in culture; assay type: cell-based, Mycobacterium abscessus; conditions: Mycobacteroides abscessus, 72 h
[15] = system: M. abscessus subsp. abscessus K21; assay: microbe, parasite or virus in culture; assay type: cell-based, Mycobacterium abscessus; conditions: Mycobacteroides abscessus, 72 h
M. abscessus Bamboo [16] = assay: MIC and MBC determination in culture tubes (planktonic); assay type: cell-based, Mycobacterium abscessus; conditions: for MBC: 10-fold reduction in CFU/ml vs day 0; for MIC: 48 h, day 2
[17] = system: M. abscessus Bamboo biofilms; assay: Biofilm growth inhibition assay (biofilm MIC and MBC); assay type: cell-based, Mycobacterium abscessus; conditions: Mycobacteroides abscessus, Biofilm, M. abscessus Bamboo; for MBC: 10-fold reduction of CFU/peg vs 24 h; for MIC: 90% reduction of CFU/peg relative to drug-free biofilm growth, 48 h
Experimental: The biofilm growth inhibition assay was performed as previously described ([52]). Innovotech MBEC 96-well Biofilm Assay Plates (Innovotech 19111, Edmonton, AB, Alberta, Canada) were used, and the supplier’s manual was followed with minor modifications. Midlog phase M. abscessus Bamboo precultures (OD600 = 0.4–0.6) were spun down at 3,200 × g for 10 min at 25°C and washed with 7H9 medium without Tween 80 (7H9nt). Bacteria were resuspended into 25 ml 7H9nt to an OD600 = 0.0125 (1.0 × 10^6 CFU/ml). 150 μl of bacteria suspension was dispensed into each well of MBEC multititer plates and the polystyrene protrusions (pegs) of the MBEC lid were inserted into the culture-containing wells for 24 h at 37°C on an orbital shaker at 110 rpm to allow attachment of the bacteria to the pegs and initiation of biofilm growth. The lids with the pegs (now with 1-day-old biofilms) were transferred to new MBEC multititer plates containing 150 μl of fresh 7H9nt medium per well without bacteria (0 h time point). After that, the lids with biofilm-laden pegs were transferred once a day to a new multititer plate containing fresh 7H9nt medium. To measure growth of the biofilm formed on the peg, the pegs were washed in 200 μl of 7H9nt medium before they were aseptically removed and placed in 1.7 ml microcentrifuge tubes (VWR 87003-294, Rador, PA, United States) containing 500 μl PBS/Tween 80. The microcentrifuge tubes were vigorously vortexed at 2,000 rpm for 90 s at 25°C to detach the bacteria from the pegs before samples were serially diluted and plated for the determination of CFU/peg. […] The average drug-free biofilm growth was calculated by subtracting the average 24 h CFU/peg value from the average 72 h CFU/peg value for the untreated control pegs. The biofilm MIC was defined as the lowest drug concentration that reduced the CFU/peg by 90% relative to the average drug-free biofilm growth.

[18] = system: M. abscessus Bamboo RM1 (GyrA M129K); assay: microbe, parasite or virus in culture; assay type: cell-based, Mycobacterium abscessus; conditions: Mycobacteroides abscessus
[19] = system: M. abscessus Bamboo RM2 (GyrA D91N); assay: microbe, parasite or virus in culture; assay type: cell-based, Mycobacterium abscessus; conditions: Mycobacteroides abscessus
[20] = system: M. abscessus Bamboo RM3 (GyrA D91N); assay: microbe, parasite or virus in culture; assay type: cell-based, Mycobacterium abscessus; conditions: Mycobacteroides abscessus
[21] = system: M. abscessus Bamboo RM4 (GyrA D91G); assay: microbe, parasite or virus in culture; assay type: cell-based, Mycobacterium abscessus; conditions: Mycobacteroides abscessus
[22] = system: M. abscessus ATCC 19977 MXF_R1 (GyrA D96Y); assay: microbe, parasite or virus in culture; assay type: cell-based, Mycobacterium abscessus
[23] = system: M. abscessus ATCC 19977 MXF_R2 (GyrA D96N); assay: microbe, parasite or virus in culture; assay type: cell-based, Mycobacterium abscessus
[24] = system: M. abscessus ATCC 19977 MXF_R3 (GyrA D96G); assay: microbe, parasite or virus in culture; assay type: cell-based, Mycobacterium abscessus
[25] = system: M. abscessus subsp. abscessus K21; assay: M. abscessus mouse infection model; assay type: in vivo, Mycobacterium abscessus; conditions: NOD SCID mice, intranasal infection
Experimental: In vivo efficacy determinations were carried out as described previously, using 8-week-old female NOD.CB17-Prkdc^scid/NCrCrl (NOD SCID) mice (Charles River Laboratories) and the M. abscessus subsp. abscessus K21 strain ([48]). Briefly, anesthetized animals were infected by intranasal delivery of ∼10^6 CFU of M. abscessus subsp. abscessus K21. Acute infection was achieved within 1 day. Drugs or the vehicle control was administered to NOD SCID mice once daily for 10 consecutive days by oral gavage, starting from 1 day postinfection. Clarithromycin was formulated in 0.4% methyl cellulose–sterile water and administered at a dose of 250 mg/kg. […] EC/11716 was formulated in 0.4% methyl cellulose–sterile water and administered at 400 mg/kg. All mice were euthanized 24 h after the last dose (11 days postinfection), and their lungs and spleen were aseptically removed prior to homogenization. The bacterial load in these organs was determined by plating serial dilutions of the organ homogenates onto Middlebrook 7H11 agar (BD Difco) supplemented with 0.2% (vol/vol) glycerol and 10% (vol/vol) OADC. The agar plates were incubated for 5 days at 37°C prior to counting of colonies. All studies were conducted in accordance with the GSK Policy on the Care, Welfare and Treatment of Laboratory Animals and were reviewed the Institutional Animal Care and Use Committee either at GSK or by the ethical review process at the institution where the work was performed. All experiments involving live animals were approved by the Institutional Animal Care and Use Committee of the Center for Discovery and Innovation, Hackensack Meridian Health.

[26] = system: anaerobic, nonreplicating M. abscessus Bamboo; assay: MBC determination under anaerobic conditions; assay type: cell-based, Mycobacterium abscessus; conditions: Mycobacteroides abscessus, 48 h drug exposure
[27] = system: nutrient-starved, nonreplicating M. abscessus Bamboo; assay: MBC determination under nutrient-starved conditions; assay type: cell-based, Mycobacterium abscessus; conditions: Mycobacteroides abscessus, 48 h drug exposure
Experimental: The determination of drug bactericidal activity against nutrient-starved M. abscessus cultures was performed as previously described ([52]). […] Washed culture was then diluted with PBS/Tyloxapol to OD600 = 0.2 (1.8 × 10^7 CFU/ml). […] Appropriate concentrations of drugs up to 100 μM were added to the tubes prior to incubation at 37°C on a tilted rack in an orbital shaker at 220 rpm.

[28] = Mycobacteroides abscessus, ATCC19977

COc1c(N2C[C@@H]3CCCN[C@@H]3C2)c(F)cc2c(=O)c(C(=O)O)cn(C3CC3)c12 [MXF, moxifloxacin]
MIC [1]: 0.6 µM (≈ 0.241 µg/mL)
MIC (M. avium 11): 1.3 µM (≈ 0.522 µg/mL)
MIC [2]: 0.4 µM (≈ 0.161 µg/mL)
MIC (M. abscessus Bamboo [3]): 5.4 µM (≈ 2.17 µg/mL)
MIC (M. abscessus Bamboo [3]; 72 h): 4.6 µM (≈ 1.85 µg/mL)
MIC ([4]; ATCC19977): 3.6 µM (≈ 1.45 µg/mL)
MIC ([4]; ATCC19977, 72 h): 3.6 µM (≈ 1.45 µg/mL)
MIC [5]: 8 µM (≈ 3.21 µg/mL)
MIC [6]: 6.3 µM (≈ 2.53 µg/mL)
MIC [7]: 2.9 µM (≈ 1.16 µg/mL)
MIC [8]: 4.8 µM (≈ 1.93 µg/mL)
MIC [9]: 2.9 µM (≈ 1.16 µg/mL)
MIC [10]: 5 µM (≈ 2.01 µg/mL)
MIC [11]: 2.7 µM (≈ 1.08 µg/mL)
MIC [12]: 3.2 µM (≈ 1.28 µg/mL)
MIC [13]: 7.1 µM (≈ 2.85 µg/mL)
MIC [14]: 6.7 µM (≈ 2.69 µg/mL)
MIC [15]: 7.3 µM (≈ 2.93 µg/mL)
MBC (M. abscessus Bamboo [16]; Mycobacteroides abscessus, 0 h): 3.1 µM (≈ 1.24 µg/mL)
MIC (M. abscessus Bamboo [16]; Mycobacteroides abscessus): 1.9 µM (≈ 0.763 µg/mL)
MBC [17]: 25 µM (≈ 10 µg/mL)
MIC [17]: 6 µM (≈ 2.41 µg/mL)
MIC [18]: 20 µM (≈ 8.03 µg/mL)
MIC [19]: 42 µM (≈ 16.9 µg/mL)
MIC [20]: 47 µM (≈ 18.9 µg/mL)
MIC [21]: 27 µM (≈ 10.8 µg/mL)
MIC [22]: >100 µM
MIC [22, 28]: > 50 µM
MIC [23]: 68 µM (≈ 27.3 µg/mL)
MIC [23, 28]: > 50 µM
MIC [24]: 54 µM (≈ 21.7 µg/mL)
MIC [24, 28]: > 50 µM
reduction in lung CFU burden ([25]; 200 mg/kg oral once daily for 10 days, not statistically significant): 0.6 log

CC[C@H]1OC(=O)[C@H](C)[C@@H](O[C@H]2C[C@@](C)(OC)[C@@H](O)[C@H](C)O2)[C@H](C)[C@@H](O[C@@H]2O[C@H](C)C[C@H](N(C)C)[C@H]2O)[C@](C)(OC)C[C@@H](C)C(=O)[C@H](C)[C@@H](O)[C@]1(C)O [CLR, clarithromycin]
MIC (M. avium 11): 0.3 µM (≈ 0.224 µg/mL)
MIC [2]: 0.15 µM (≈ 0.112 µg/mL)
MIC (M. abscessus Bamboo [3]): 0.33 µM (≈ 0.247 µg/mL)
MIC (M. abscessus Bamboo [3]; 72 h): 0.23 µM (≈ 0.172 µg/mL)
MIC ([4]; ATCC19977): 1.2 µM (≈ 0.898 µg/mL)
MIC ([4]; ATCC19977, 72 h): 0.9 µM (≈ 0.673 µg/mL)
MIC [5]: 0.19 µM (≈ 0.142 µg/mL)
MIC [6]: 2.5 µM (≈ 1.87 µg/mL)
MIC [7]: 0.73 µM (≈ 0.546 µg/mL)
MIC [8]: 2.7 µM (≈ 2.02 µg/mL)
MIC [9]: 0.9 µM (≈ 0.673 µg/mL)
MIC [10]: 0.2 µM (≈ 0.15 µg/mL)
MIC [11]: 0.65 µM (≈ 0.486 µg/mL)
MIC [12]: 0.95 µM (≈ 0.711 µg/mL)
MIC [13]: 0.28 µM (≈ 0.209 µg/mL)
MIC [14]: 0.24 µM (≈ 0.18 µg/mL)
MIC [15]: 0.4 µM (≈ 0.299 µg/mL)
MBC (M. abscessus Bamboo [16]): >100 µM
MBC (M. abscessus Bamboo [16]; Mycobacteroides abscessus, 0 h): > 100 µM
MIC (M. abscessus Bamboo [16]; Mycobacteroides abscessus): 0.28 µM (≈ 0.209 µg/mL)
MBC [17]: > 100 µM
MIC [17]: 1.6 µM (≈ 1.2 µg/mL)
MBC [26]: > 100 µM
MBC [27]: > 100 µM
MIC [18]: 0.24 µM (≈ 0.18 µg/mL)
MIC [19]: 0.29 µM (≈ 0.217 µg/mL)
MIC [20]: 0.27 µM (≈ 0.202 µg/mL)
MIC [21]: 0.26 µM (≈ 0.194 µg/mL)
MIC [22, 28]: 1.5 µM (≈ 1.12 µg/mL)
MIC [23, 28]: 0.73 µM (≈ 0.546 µg/mL)
MIC [24, 28]: 0.34 µM (≈ 0.254 µg/mL)
reduction in lung CFU ([25]; 250 mg/kg oral once daily for 10 days, EC/11716 reduction stated on par with it): ~1 log

CO[C@H]1/C=C/O[C@@]2(C)Oc3c(C)c(O)c4c(O)c(c(/C=N/N5CCN(C)CC5)c(O)c4c3C2=O)NC(=O)/C(C)=C\C=C\[C@H](C)[C@H](O)[C@@H](C)[C@@H](O)[C@@H](C)[C@H](OC(C)=O)[C@@H]1C [rifampin]
MIC [1]: 0.66 µM (≈ 0.543 µg/mL)
